Where two headings read alike, the source gives them in different places.
Experiments:
in vivo = conditions: Wistar, rat, po
[1] = In vivo pharmacokinetic study in Beagle dogs; conditions: dog, Beagle dogs (n=6)

AUC (in vivo): 149 µg·h/mL
Cmax (in vivo): 12000 ng/mL
Tmax (in vivo): 4 h
AUC(0-t) ([1]; read-out: AUC0-t, Arithmetic Mean): 8690 ng·h/mL
AUC(0-t) ([1]; read-out: AUC0-t, Geometric Mean): 7800 ng·h/mL
Cmax ([1]; read-out: Cmax, Arithmetic Mean): 497 ng/mL
Cmax ([1]; read-out: Cmax, Geometric Mean): 430 ng/mL
Compound: CC(C)OC(=O)C(C)(C)Oc1ccc(C(=O)c2ccc(Cl)cc2)cc1 [uncoated particles, fenofibrate]
